Experimental findings from publication PMC7311950, “Potent Tetrahydroquinolone Eliminates Apicomplexan Parasites” (Frontiers in Cellular and Infection Microbiology, 2020) are described below.

Series [1] concerns cytochrome P450 (CYP 450), 4 of 5 isoforms tested. The series can be described thus: CYP450 inhibition. Format: in vitro ADME. The conditions noted are these: human; 4/5 isoforms.
The target of series [2] is T1, bovine cytochrome bc1 (Bos taurus, UniProt P00157).
T1 construct: Whole fresh bovine heart was collected after slaughter and transported in ice; from tissue; host or cells: bovine heart mitochondria; DDM-solubilised, DEAE-Sepharose and Sephacryl-S300 purified
Kind of series: Bovine cytochrome bc1 activity assay. The conditions noted are these: read-out: Bovine Cytbc1 activity inhibition. Type of series: biochemical. As for the experimental part:
Bovine cytochrome bc1 inhibition assay was carried out in 50 mM KPi pH 7.5, 2 mM EDTA, 10 mM KCN, 30 μM equine heart cytochrome c (Sigma Aldrich), and 2.5 nM bovine cytochrome bc1 at room temperature. 20 mM inhibitors dissolved in DMSO were added to the assay at a desired concentration without prior incubation. […] The reaction was initiated by the addition of 50 μM decylubiquinol (Abcam). The reduced cytochrome c was monitored by the different absorption between 550 and 542 nm using extinction coefficient of 18.1 mM^−1 cm^−1 in a SPECTRAmax Plus 384 UV-visible Spectrometer. The initial kinetic rate is determined as a zero-order reaction and used as the specific activity of cytochrome bc1.

For series [3], the system named is T. gondii Me49 strain. The series can be described thus: Established chronic Me49 infection of Balb/C mice, brain cysts. Type of series: in vivo, Toxoplasma gondii. The conditions noted are these: treatment begun day 30 after infection, IP daily for 14 days. As for the experimental part:
In separate experiments, Balb/C mice were infected IP with 20 × 10^3 T. gondii Me49 strain tachyzoites. In these separate studies of mice with established chronic infection, after 30 days, IP treatment with JAG21 was begun each day for 14 days. JAG21 was dissolved in DMSO and administered IP in a total volume of 0.05 mL. In experiments when tafenoquine was administered alone or with JAG21 in some groups 3 mg/kg tafenoquine was administered once on day−1 from when JAG21 treatment was initiated. Cysts in brain were quantitated on day […], 16 days after discontinuing JAG21. Immunoperoxidase staining was performed. Parasite burden was quantitated in two ways. The first was using a positive pixel count algorithm of Aperio ImageScope software. Positive pixels were normalized to tissue area (mm^2). Briefly, automated quantitation was done by counting positive pixels per square area. The entire brain in one section was scanned for each mouse. The Cyst burden was quantitated as units of positive pixels per mm^2. The average ± S.E.M. numbers of mm^2 per slide quantitated was 30.2±1.6 square mm per mouse for this quantification. Each highpower field of view shown in Figure 5C is ~0.02 mm^2 per field of view. Cysts on each slide for each condition in two biological replicate experiments were also quantitated by 2 separate observers independently and results compared with automated counting, separately.

The subject of series [4] is T. gondii RPS13Δ. The series can be described thus: RPS13Δ infection of interferon γ receptor knockout mice. Format: in vivo, Toxoplasma gondii. The conditions noted are these: mice to start 5 (Tafenoquine), 5 (JAG21). As for the experimental part:
In pilot studies, herein, interferon γ receptor knockout mice that were not treated were observed following infection. At 7 and at 14 days following infection, spleen, and liver were removed and immune peroxidase stained. At 14 days a group of mice were treated with anhydrotetracycline and when a subset of these mice died, their spleen and liver were removed and immune peroxidase stained.
As in the pilot studies, this RPS13 Δ parasite also was used to infect interferon γ receptor knockout mice in a treatment study. In this separate study, groups of mice were infected with RPS13 Δ. They were treated with tafenoquine on day−1, or JAG21 for 14 days 2 h after infection, or the two together with tafenoquine on day−1 and JAG21 for the first 14 days, or with diluent only for 14 days, as described above. For the initial 14 days, no tetracycline was administered. After that time tetracycline was administered. Mice were observed each day. At the time they appeared to have substantial illness or at the termination of the experiment they were euthanized, tissues fixed in formalin and stained with hematoxylin and eosin or immunoperoxidase stained and parasite burden was assessed.

pIC50: −log10 of the molar value. Entries after “also recorded” stand apart in the source; their conditions may differ. Some results are limits rather than exact numbers.

By pIC50 is commonly meant the negative decadic logarithm of the IC50, by convention in mol/L. Low readings indicate a high IC50, high ones a low IC50. The term inhibition denotes the percentage by which the read-out fell short of the control.

In series [1], `Cc1[nH]c2c(c(=O)c1-c1ccc(Oc3ccc(OC(F)(F)F)cc3)cc1)CCCC2` [JAG21, 2-Methyl-3-(4-(4-(Trifluoromethoxy)Phenoxy)Phenyl)-5,6,7,8-Tetrahydroquinolin-4-One] gave a pIC50 below 5.00. For the same compound, in series [2] (0.1 μM), the inhibition at 0.1 µM amounted to 36%. In series [2] (1 μM), the inhibition at 1 µM amounted to 63%. The Me49 brain cysts entry in series [3] is on record as “marked, statistically significant reduction; also recorded: markedly reduce”. Further, the “number of mice left at 42” value in series [4] (Experiment 1, 6 (Tafenoquine+JAG21)) stood at 2. Also, the “number of mice left at 37” value in series [4] (Experiment 2, 9 (Tafenoquine+JAG21)) is listed as 3.
